Where two headings read alike, the source gives them in different places. Numbered stars: 1 amine (or outer) side, 2 acyl side, 3 side chain; on linkers, the order of the positions; unused ones are H or OH. Square brackets hold non-standard residues; d marks the D form. Peptide text beside a SMILES is read from it. βAla(3R-(1-naphthyl)) = O=C(C[C@@H](N[*:1])c1cccc2ccccc12)[*:2]
Key:
[1] = 25 to 80 °C, 18 μM
Protocol: Circular dichroism experiments were done using a Jasco J-815 CD Spectrometer (Jasco, Japan) at temperatures from 20 to 80 °C with a gradual 5 °C increase before reading. […] The spectra for samples were recorded from 185-350 nm wavelengths with a total of four scans for each temperature, and wavelength vs. ellipticity was plotted for an average of four scans.

HER2 phosphorylation = assay: Western blot of HER2 phosphorylation in lung tumor tissue; type: in vivo, mice; conditions: tumors harvested day 35; 18 6 mg/kg, lapatinib 10 mg/kg
Protocol: A549 cells were treated with 2 µM 18 or 2 µM lapatinib (positive control). Cells without treatment were employed as a negative control. Cells were treated for 36 h, washed, and trypsinized. 35 μg of protein from each sample was loaded on Novex® 4-20% tris-glycine gels and transferred into nitrocellulose membranes. The membranes were blocked with 2% bovine serum albumin solution and incubated with primary antibodies overnight at 4 °C. Antibodies for the detection of total HER2 protein (t-HER2), phosphorylated HER2 protein (p-HER2), total AKT (t-AKT); (Cell Signaling Technology, phosphorylated AKT (P-Akt, S473); (Cell Signaling Technology) were used at 1:1000 dilution. Secondary antibodies with HRP conjugation was incubated for 1 h. After the addition of the substrate and enhancer solutions from a super signal enhanced chemiluminescence kit (Pierce, Rockford, IL) to the membrane, images were captured using ChemiDoc™ Touch Gel Imaging System (Bio-Rad), and band densities were quantified. A representative Western blot image was used for the final presentation. […]
All animal studies were conducted in accordance with NIH guidelines for care, and use of laboratory animals and protocols were approved by the Institutional Animal Care and Use Committee at the University of Louisiana Monroe. […] To evaluate the effect of the treatments, tumors were imaged, and bioluminescence was measured once a week. […]

[2] = tested on: phosphorylated AKT (P-Akt, S473); assay: Western blot of Akt phosphorylation in A549 cells; type: cell-based, human; conditions: 2 µM, 36 h, Western blot densitometry
Protocol: (§1) A549 cells were treated with 2 µM 18 or 2 µM lapatinib (positive control). Cells without treatment were employed as a negative control. Cells were treated for 36 h, washed, and trypsinized. 35 μg of protein from each sample was loaded on Novex® 4-20% tris-glycine gels and transferred into nitrocellulose membranes. The membranes were blocked with 2% bovine serum albumin solution and incubated with primary antibodies overnight at 4 °C. Antibodies for the detection of total HER2 protein (t-HER2), phosphorylated HER2 protein (p-HER2), total AKT (t-AKT); (Cell Signaling Technology, phosphorylated AKT (P-Akt, S473); (Cell Signaling Technology) were used at 1:1000 dilution. Secondary antibodies with HRP conjugation was incubated for 1 h. After the addition of the substrate and enhancer solutions from a super signal enhanced chemiluminescence kit (Pierce, Rockford, IL) to the membrane, images were captured using ChemiDoc™ Touch Gel Imaging System (Bio-Rad), and band densities were quantified. A representative Western blot image was used for the final presentation. Data are from triplicates and are presented as the mean ± standard error of the mean (SEM). To evaluate the significance, statistical analysis was performed by a one-tail T-test using Prism Graph Pad (GraphPad Software, San Diego). P< 0.05 was considered statistically significant, [32].

[3] = biological target: human serum albumin (HSA) (Homo sapiens, UniProt P02768)
Chain of human serum albumin (HSA) (P02768 25-609): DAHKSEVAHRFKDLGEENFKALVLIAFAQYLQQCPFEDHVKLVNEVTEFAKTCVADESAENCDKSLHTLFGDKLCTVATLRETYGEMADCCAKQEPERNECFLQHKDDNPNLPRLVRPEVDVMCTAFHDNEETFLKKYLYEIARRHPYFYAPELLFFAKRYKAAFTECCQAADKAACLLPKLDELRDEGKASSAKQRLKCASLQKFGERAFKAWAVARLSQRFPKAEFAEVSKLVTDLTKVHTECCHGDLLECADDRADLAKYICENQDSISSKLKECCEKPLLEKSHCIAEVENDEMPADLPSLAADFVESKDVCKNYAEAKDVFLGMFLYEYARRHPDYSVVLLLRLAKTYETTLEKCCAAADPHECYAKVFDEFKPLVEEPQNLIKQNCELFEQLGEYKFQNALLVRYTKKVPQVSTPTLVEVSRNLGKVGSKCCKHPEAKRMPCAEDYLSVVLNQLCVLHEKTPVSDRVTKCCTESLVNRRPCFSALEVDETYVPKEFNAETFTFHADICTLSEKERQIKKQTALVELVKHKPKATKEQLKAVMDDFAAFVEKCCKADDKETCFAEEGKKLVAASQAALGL
Protocol: Surface plasmon resonance analysis was performed in 0.01 M phosphate-buffered saline (NaCl 0.138 M; KCl -0.0027 M); Tween® 20 -0.05%, pH 7.4 using a Reichert Life Sciences System. Immobilization of HSA to the hydrophilic carboxymethylated dextran matrix of the CM5 sensor chip was carried out by the standard primary amine coupling method. […] All binding experiments were performed at a flow rate of 25 µL/min. After each interaction analysis, the sensor chip was regenerated with water. […] The Kd values were obtained using the 1:1 kinetic evaluation fitting tool of Tracedrawer software.

A549 cells = conditions: read-out: IC50, antiproliferative activity in A549; A549 NSCLC, HER2+; 72 h, serum-free medium, CellTiter-Glo
Protocol: HER2 positive A549 lung cancer cell line was purchased from American Type Culture Collection (ATCC, Manassas, VA) and subcultured in RPMI media (ATCC) with 10% FBS. […] Cells were incubated in a humidified atmosphere of 5% CO2 at 37°C.
EGFR:HER2 dimerization = biological target: T1, EGFR:HER2 dimerization (Homo sapiens, UniProt P04626); assay: Proximity ligation assay on lung tumor tissue, EGFR:HER2; type: in vivo, mice; conditions: 6 mg/kg, vs vehicle control
T1 construct: from tissue; host or cells: Lung tumour tissue of nude mice injected IV with A549-Red-FLuc human NSCLC cells
T1 sequence (P04626 23-1255): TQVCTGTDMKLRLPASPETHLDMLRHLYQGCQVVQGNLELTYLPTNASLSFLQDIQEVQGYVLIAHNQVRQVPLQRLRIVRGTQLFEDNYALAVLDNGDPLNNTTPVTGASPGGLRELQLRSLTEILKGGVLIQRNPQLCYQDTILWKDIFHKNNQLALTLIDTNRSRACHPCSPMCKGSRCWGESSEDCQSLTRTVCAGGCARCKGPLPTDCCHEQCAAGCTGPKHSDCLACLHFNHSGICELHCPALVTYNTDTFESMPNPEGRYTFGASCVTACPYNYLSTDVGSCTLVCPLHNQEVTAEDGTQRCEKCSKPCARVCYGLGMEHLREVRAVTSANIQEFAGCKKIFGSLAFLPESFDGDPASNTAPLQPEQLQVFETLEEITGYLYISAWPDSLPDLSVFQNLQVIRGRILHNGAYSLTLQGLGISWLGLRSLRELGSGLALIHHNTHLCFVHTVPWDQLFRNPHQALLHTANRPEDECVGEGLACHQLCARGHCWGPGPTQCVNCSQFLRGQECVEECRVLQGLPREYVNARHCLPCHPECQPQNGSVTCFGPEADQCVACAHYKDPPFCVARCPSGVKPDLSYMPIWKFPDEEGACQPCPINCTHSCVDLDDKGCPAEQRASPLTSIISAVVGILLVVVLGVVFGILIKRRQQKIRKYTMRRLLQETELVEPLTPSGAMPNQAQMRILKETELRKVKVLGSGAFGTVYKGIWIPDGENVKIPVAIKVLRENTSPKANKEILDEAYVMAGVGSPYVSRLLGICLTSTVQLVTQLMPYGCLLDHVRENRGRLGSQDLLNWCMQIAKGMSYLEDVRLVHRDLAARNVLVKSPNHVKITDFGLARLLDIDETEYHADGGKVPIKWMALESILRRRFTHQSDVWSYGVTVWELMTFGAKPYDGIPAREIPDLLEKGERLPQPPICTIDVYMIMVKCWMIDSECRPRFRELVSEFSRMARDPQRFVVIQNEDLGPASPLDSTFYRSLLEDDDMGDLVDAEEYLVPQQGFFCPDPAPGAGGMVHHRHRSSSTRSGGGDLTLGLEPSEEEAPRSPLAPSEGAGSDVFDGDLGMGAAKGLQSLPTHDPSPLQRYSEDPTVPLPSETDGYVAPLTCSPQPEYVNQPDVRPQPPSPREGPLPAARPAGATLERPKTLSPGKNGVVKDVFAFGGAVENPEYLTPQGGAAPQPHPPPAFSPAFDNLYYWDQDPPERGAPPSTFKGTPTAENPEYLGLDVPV
Protocol: (§2) The lung tissue samples with tumors were fixed on the slides. […] Antigen retrieval on the tissue section of slides was done in a steaming sodium citrate buffer (10 mM, 0.05% Tween 20, pH 6.0) for 15 min. Tissue slides were incubated with primary antibodies overnight at 4 °C and washed, and secondary antibodies PLA+ and PLA- were added. After incubation and washing, PLA detection reagents were added, [36]. The mounting medium was then added, and the slides were coverslipped. Slides were viewed using an Olympus BX63 fluorescence microscope fitted with deconvolution optics using DAPI, and Texas Red filters. Images were obtained at 40×.

MCF-10A = tested on: MCF-10A; design: method as in ref 20 (a number printed in a supplementary file, which may have a reference list of its own: not looked up in the article's list); conditions: MCF-10A non-cancerous breast cell line, basal HER2; read-out: IC50, antiproliferative activity in MCF-10A; cited from earlier work
[4] = mouse, in vivo, iv
Protocol: (§10) Female Foxn1-nude, 6-7 week-old mice (Envigo) were used in all studies.
(§11) After administration of the compound, mice were sacrificed at certain time intervals (0, 0.25, 0.75, 2, 4, 6, 12 and 24 h), and blood samples were taken to study the amount of compound remaining in blood circulation. The samples were then centrifuged at 1000 rpm for 5 min. The separated supernatant serum samples were precipitated by acetonitrile to extract the analytes and passed through the Sep-Pak (Waters) column. Chromatographic separation was performed on an HPLC. Mass spectrometry was used to identify the correct molecular ion of the intact compound.
(§12) Blood samples were collected at different time intervals, and analysis of the sample was accomplished using HPLC and mass spectrometry. […] For pharmacokinetic parameter analysis, PKSolver software was used [50]. […] Based on the AIC, SC, and curve fitting by the PKSolver software, intravenous bolus administration/two compartmental model was selected for deriving our reported pharmacokinetic parameters.
HER2:HER3 dimerization = biological target: T2, HER2:HER3 dimerization (Homo sapiens, UniProt P04626); assay: Proximity ligation assay on lung tumor tissue, HER2:HER3; type: in vivo, mice; conditions: 6 mg/kg, vs vehicle control
T2 construct: from tissue; host or cells: Lung tumour tissue of nude mice injected IV with A549-Red-FLuc human NSCLC cells
T2 sequence (P04626 23-1255): as above
Protocol: as §2

[5] = mouse, in vivo, iv; remark: listed apart in the source
Protocol: as §10, §11, §12

MCF-7 = MCF-7 breast cancer, HER2-; read-out: IC50, antiproliferative activity in MCF-7; cited from earlier work
[6] = tested on: A549 Red-FLuc lung tumors; assay: Antitumor assessment, experimental metastasis lung cancer model, bioluminescence imaging; type: in vivo; conditions: 18 6 mg/kg, lapatinib 10 mg/kg, twice a week; A549-Red-FLuc lung tumors in nude mice
Protocol: All animal studies were conducted in accordance with NIH guidelines for care, and use of laboratory animals and protocols were approved by the Institutional Animal Care and Use Committee at the University of Louisiana Monroe. Bioware® Brite Cell Line A549 Red-FLuc cells that had been engineered to express firefly luciferase (Perkin Elmer) were injected into the tail vein (4.5 × 10^6 cells in 200 µl PBS per mouse) of 6-week-old Foxn1^nu-nude mice. For bioluminescence imaging, mice were anesthetized with 1-3% isoflurane and 150 mg/kg of D-luciferin (PerkinElmer) in phosphate-buffered saline (PBS) was given by intraperitoneal injection. 8 min after injection, bioluminescence was imaged with an IVIS Lumina III Series (PerkinElmer), and regions of interest (ROI) were drawn around the bioluminescent signals and quantified as photons/second (p/s). Mice with tumors were divided into three groups viz. control (vehicle), 18 treatment, and lapatinib treatment. After two weeks of the inoculation of tumor cells, mice from the respective groups were injected intravenously with 18 (6 mg/kg) or lapatinib (10 mg/kg) or vehicle twice a week for the next three weeks. To evaluate the effect of the treatments, tumors were imaged, and bioluminescence was measured once a week. […]

SKBR-3 = tested on: SKBR-3; design: method as in ref 20 (Kanthala et al. Oncotarget 8(43):74244-74262); conditions: SKBR-3 breast cancer, HER2+; ref 20 (Kanthala et al. Oncotarget 8(43):74244-74262); read-out: IC50, antiproliferative activity in SKBR-3; cited from earlier work
physchem = conditions: buffer, pH 1
From the text: Shimadzu FCV-20AH2 manual injector was used with Ultra C18, 5 µm (250 × 4.6 mm) column, Shimadzu SPD-20A UV/Vis detector, and Shimadzu LC-20AP pump. 40% acetonitrile (0.1% TFA) with 60% water (0.1% TFA) was used as mobile phase. Relative Peak area was plotted as % remaining compound with respect to time compared with zero time point, and data are from triplicate experiments. For pH stability, a buffer with pH 1 was obtained by adding 0.1 M HCl, and a buffer with pH 7.5 was obtained by adding 0.1 M PBS (Sigma).

in vitro [7] = conditions: simulated gi fluid
Protocol: (§13) Simulated intestinal fluid TS and simulated gastric fluid were purchased from Ricca Chemical (Arlington, TX). Pepsin (0.32 g/100 ml) was added to the simulated gastric fluid. To determine the effect of simulated gastric and intestinal fluids on 18, it (10µM) was incubated in gastric fluid with pepsin for 6 h and intestinal fluid for 12 h at 37 °C. Samples were taken at particular time intervals and analyzed using the HPLC method [33]. Methods used were similar to the methods explained above for HPLC analysis.

in vitro [8] = conditions: simulated gi fluid; remark: listed apart in the source
Protocol: as §13

[9] = tested on: phosphorylated HER2 protein (p-HER2); assay: Western blot of HER2 phosphorylation in A549 cells; type: cell-based, human; conditions: 2 µM, 36 h, Western blot densitometry
Protocol: as §1

HER2 expression = tested on: HER2 expression; design: method as in ref 20 (a number printed in a supplementary file, which may have a reference list of its own: not looked up in the article's list); conditions: HER2-positive breast cancer xenograft, 4 mg/kg IV; cited from earlier work
[10] = tested on: lung, heart, kidney, liver tissue; type: in vivo, mice; conditions: for Lung histology (H&E) compared to vehicle: day 35, 18 6 mg/kg, lapatinib 10 mg/kg
Protocol: For histopathological analysis, lungs, kidney, liver, heart, and pancreas were excised from the mice and fixed with 10% normal formalin solution. These fixed samples were embedded in paraffin, and slides were prepared by cutting them into 5 μm slices and mounting on the glass. Prepared slides were stained using hematoxylin and eosin (H&E) staining. Slides were visualized under a microscope (Nikon labophot 2. Type120) and pictures were taken at different magnifications for analysis. Representative pictures from histopathology analysis were used for presentation.

NCI-H1975 = conditions: read-out: IC50, antiproliferative activity in NCI-H1975; NCI-H1975 EGFR mutated NSCLC cell line
Protocol: (§3) In a 96-well plate, 1 × 10^4 cells/well were seeded and incubated overnight at 37 °C and 5% CO2. The stock solution of the peptidemimetic was prepared by dissolving them in DMSO. Stock solutions of the compound and controls were diluted using the serum-free medium to prepare solutions of different concentrations of compounds with DMSO concentration not exceeding 1% (v/v) in the final solution in each well of a 96-well plate. […] A dose-response curve was generated using percentage cell viability vs. log concentration of compounds, and IC50 values were obtained using Prism® (GraphPad Software). Experiments were repeated three times to obtain standard deviation values.
(§4) In vivo Studies of a Peptidomimetic that Targets EGFR
(§5) Leeza Shrestha1, Sitanshu Singh1, Pravin Parajuli1, Achyut Dahal1, George Mattheolabakis1,
(§6) Sharon Meyer1, Joydeep Bhattacharjee2, Seetharama Jois1*
(§7) 1School of Basic Pharmaceutical and Toxicological Sciences, College of Pharmacy, University
(§8) of Louisiana Monroe, Monroe, LA 71201.
(§9) 2Biology Program, School of Sciences, University of Louisiana Monroe, Monroe, LA 71029.

SKOV-3 = conditions: read-out: IC50, antiproliferative activity in SKOV-3; SKOV-3 ovarian cancer, HER2+
Protocol: as §3, §4, §5, §6, §7, §8, §9

N=C(N)NCCC[C@@H]1NC(=O)[C@H]2CCCN2C(=O)[C@@H]2CCCN2C(=O)[C@H](CCCNC(=N)N)NC(=O)C[C@H](c2cccc3ccccc23)NC(=O)[C@H](Cc2ccccc2)NC(=O)[C@H](CC(=O)O)NC(=O)[C@H](CC(=O)O)NC(=O)[C@H](Cc2ccccc2)NC(=O)C[C@H](c2cccc3ccccc23)NC1=O [Compound 18] (cyclo(DDF[βAla(3R-(1-naphthyl))]RP[dP]R[βAla(3R-(1-naphthyl))]F))
Change of circular dichroism spectra (backbone conformation) with temperature [1]: did not show any significant change
HER2 phosphorylation in lung tumor tissue compared to control (HER2 phosphorylation): inhibited HER2 phosphorylation to a significant extent
Time after which concentration decreases significantly at pH 1 (pH 1): > 4 days
Stability at pH 7.5 (pH 7.5): stable for 30 days
Inhibition of phosphorylation of Akt compared to control [2]: 24.7%
Compound in free form [3]: ~22%
IC50 (A549 cells): 868 ± 32 nM
EGFR:HER2 dimerization in lung tumor tissue (PLA red fluorescence) (EGFR:HER2 dimerization): reduction in red fluorescence
IC50 (MCF-10A): 40000 nM
AUC(0-inf) [4]: ~459 µg·h/mL
Vd [4]: ~0.011 L
clearance [4]: ~0.00433 mL/min
half-life ([4]; 4 mg/kg, Terminal half-life): ~42 h
half-life ([4]; 6 mg/kg, Terminal half-life): ~46 h
half-life ([4]; Distribution half-life): ~0.8 h
half-life ([4]; Terminal half-life in vivo): > 40 h
HER2:HER3 dimerization in lung tumor tissue (PLA red fluorescence) (HER2:HER3 dimerization): reduction in red fluorescence
Vd peripheral [5]: ~17 mL
IC50 (MCF-7): > 50000 nM
Rate of tumor growth indicated by total flux compared with vehicle [6]: decreased
IC50 (SKBR-3): 194 ± 46 nM
remaining at 720 h (physchem): > 40%
remaining at 6 h, 10 µM (in vitro [7]): > 80%
remaining at 12 h, 10 µM (in vitro [8]): > 40%
Inhibition of phosphorylation of HER2 compared to control [9]: 41.6%
Change in HER2 expression in xenograft tumor tissue (HER2 expression): no
Toxicity to organs (heart, liver, lung, kidney), H&E ([10]; 6 mg/kg, three weeks of treatment): no significant tissue damage or toxic effects
Lung histology (H&E) compared to vehicle [10]: remarkably fewer tumors and less inflammatory infiltration
IC50 (NCI-H1975): 4850 ± 217 nM
IC50 (SKOV-3): 853 ± 102 nM

CS(=O)(=O)CCNCc1ccc(-c2ccc3ncnc(Nc4ccc(OCc5cccc(F)c5)c(Cl)c4)c3c2)o1 [lapatinib, reference compound]
HER2 phosphorylation in lung tumor tissue compared to control (HER2 phosphorylation): inhibited HER2 phosphorylation to a significant extent
Rate of tumor growth indicated by total flux compared with vehicle [6]: decreased
Lung histology (H&E) compared to vehicle [10]: remarkably fewer tumors and less inflammatory infiltration
